Measured values published in ChEMBL document CHEMBL4665673, “Monomeric Targeted Protein Degraders” (J Med Chem, 2020).
Square brackets hold non-standard residues; d marks the D form. Peptide text beside a SMILES is read from it. Dip = N[C@H](C(=O)O)C(c1ccccc1)c1ccccc1; Chg = N[C@H](C(=O)O)C1CCCCC1; NMeA = CN[C@@H](C)C(=O)O

Legend:
[1] = target: Histone-lysine N-methyltransferase EZH2 (Homo sapiens, UniProt Q15910); assay: Binding affinity to EZH2 (unknown origin)
[2] = Antiproliferative activity against human SK-N-BE2 cells after 72 hrs by CyQUANT reagent based assay relative to control; assay type: functional; details: SKNBE2
cells = details: Homo sapiens, SKNBE2, 72 h
[3] = target: B-cell lymphoma 6 protein (Homo sapiens) (UniProt P41182); assay: Induction of BCL6 degradation in human SU-DHL-4 cells at 5 uM measured after 5 mins by capillary electrophoresis relative to control; assay type: cell-based
[4] = target: B-cell lymphoma 6 protein (Homo sapiens) (UniProt P41182); assay: Induction of BCL6 degradation in human SU-DHL-4 cells at 5 uM measured after 2 hrs by capillary electrophoresis relative to control; assay type: cell-based
[5] = target: T1, B-cell lymphoma 6 protein (Homo sapiens, UniProt P41182, C67R/C84N/C8Q); assay: Inhibition of BCOR peptide binding to BCL6 BTB domain (5 to 129 residues) C8Q/C67R/C84N triple mutant (unknown origin) expressed in Escherichia coli BL21(DE3) cells preincubated for 30 mins followed by BCOR ULight peptide addition and measured after 240 mins by TR-FRET assay
[6] = target: Tyrosine-protein kinase JAK1 (Homo sapiens, UniProt P23458); assay: Inhibition of human JAK1 using 5FAM-KKSRGDYMTMQID as substrate by caliper microfluidic mobility shift assay
[7] = target: T2, Tyrosine-protein kinase JAK3 (Homo sapiens, UniProt P52333); assay: Inhibition of human JAK3 using FITC-KGGEEEEYFELVKK as substrate by caliper microfluidic mobility shift assay
T2 sequence (P52333 whole entry): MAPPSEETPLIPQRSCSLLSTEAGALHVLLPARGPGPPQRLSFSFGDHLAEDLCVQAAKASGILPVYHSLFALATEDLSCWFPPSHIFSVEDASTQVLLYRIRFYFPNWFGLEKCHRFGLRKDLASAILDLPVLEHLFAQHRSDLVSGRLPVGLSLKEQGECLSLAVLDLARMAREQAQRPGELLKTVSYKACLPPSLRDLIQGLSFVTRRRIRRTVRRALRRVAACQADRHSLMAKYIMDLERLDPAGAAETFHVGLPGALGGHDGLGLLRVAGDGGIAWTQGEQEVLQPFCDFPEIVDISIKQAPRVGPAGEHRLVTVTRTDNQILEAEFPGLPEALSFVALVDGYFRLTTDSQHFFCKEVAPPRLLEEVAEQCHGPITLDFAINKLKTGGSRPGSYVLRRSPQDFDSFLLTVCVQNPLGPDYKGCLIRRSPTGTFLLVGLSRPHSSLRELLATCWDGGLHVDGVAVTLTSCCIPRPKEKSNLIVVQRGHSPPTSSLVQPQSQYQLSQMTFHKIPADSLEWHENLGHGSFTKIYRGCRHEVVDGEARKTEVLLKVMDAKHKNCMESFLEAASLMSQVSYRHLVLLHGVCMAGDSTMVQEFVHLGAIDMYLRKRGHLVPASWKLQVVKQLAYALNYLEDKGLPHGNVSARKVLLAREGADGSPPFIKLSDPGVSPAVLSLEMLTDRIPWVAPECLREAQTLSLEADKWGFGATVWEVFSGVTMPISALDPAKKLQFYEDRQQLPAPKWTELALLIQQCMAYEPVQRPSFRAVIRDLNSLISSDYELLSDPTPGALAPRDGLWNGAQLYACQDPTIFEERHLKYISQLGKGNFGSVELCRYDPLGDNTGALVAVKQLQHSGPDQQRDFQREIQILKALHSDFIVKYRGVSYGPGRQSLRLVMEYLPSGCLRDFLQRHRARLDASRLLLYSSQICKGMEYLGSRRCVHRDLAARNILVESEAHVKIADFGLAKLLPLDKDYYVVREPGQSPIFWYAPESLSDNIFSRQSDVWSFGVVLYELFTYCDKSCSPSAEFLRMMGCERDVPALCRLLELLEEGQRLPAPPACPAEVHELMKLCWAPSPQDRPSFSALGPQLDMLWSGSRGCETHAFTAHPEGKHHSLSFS

[8] = Downregulation of JAK3 mRNA expression in human PBMC at 1 uM after 22 hrs by qPCR analysis relative to control; assay type: functional
[9] = target: Tyrosine-protein kinase JAK2 (Homo sapiens, UniProt O60674); assay: Inhibition of human JAK2 using FITC-KGGEEEEYFELVKK as substrate by caliper microfluidic mobility shift assay
[10] = target: Non-receptor tyrosine-protein kinase TYK2 (Homo sapiens, UniProt P29597); assay: Inhibition of human TYK2 using 5FAM-KKSRGDYMTMQID as substrate by caliper microfluidic mobility shift assay
[11] = Downregulation of JAK2 mRNA expression in human PBMC at 1 uM after 22 hrs by qPCR analysis relative to control; assay type: functional
[12] = target: Leucine-rich repeat serine/threonine-protein kinase 2 (Homo sapiens, UniProt Q5S007, G2019S); assay: Inhibition of LRRK2 G2019S mutant (unknown origin)
Androgen receptor = target: T3, Androgen receptor (Homo sapiens, UniProt P10275); assay: Inhibition of androgen receptor LBD domain (unknown origin)
T3 sequence (P10275 whole entry): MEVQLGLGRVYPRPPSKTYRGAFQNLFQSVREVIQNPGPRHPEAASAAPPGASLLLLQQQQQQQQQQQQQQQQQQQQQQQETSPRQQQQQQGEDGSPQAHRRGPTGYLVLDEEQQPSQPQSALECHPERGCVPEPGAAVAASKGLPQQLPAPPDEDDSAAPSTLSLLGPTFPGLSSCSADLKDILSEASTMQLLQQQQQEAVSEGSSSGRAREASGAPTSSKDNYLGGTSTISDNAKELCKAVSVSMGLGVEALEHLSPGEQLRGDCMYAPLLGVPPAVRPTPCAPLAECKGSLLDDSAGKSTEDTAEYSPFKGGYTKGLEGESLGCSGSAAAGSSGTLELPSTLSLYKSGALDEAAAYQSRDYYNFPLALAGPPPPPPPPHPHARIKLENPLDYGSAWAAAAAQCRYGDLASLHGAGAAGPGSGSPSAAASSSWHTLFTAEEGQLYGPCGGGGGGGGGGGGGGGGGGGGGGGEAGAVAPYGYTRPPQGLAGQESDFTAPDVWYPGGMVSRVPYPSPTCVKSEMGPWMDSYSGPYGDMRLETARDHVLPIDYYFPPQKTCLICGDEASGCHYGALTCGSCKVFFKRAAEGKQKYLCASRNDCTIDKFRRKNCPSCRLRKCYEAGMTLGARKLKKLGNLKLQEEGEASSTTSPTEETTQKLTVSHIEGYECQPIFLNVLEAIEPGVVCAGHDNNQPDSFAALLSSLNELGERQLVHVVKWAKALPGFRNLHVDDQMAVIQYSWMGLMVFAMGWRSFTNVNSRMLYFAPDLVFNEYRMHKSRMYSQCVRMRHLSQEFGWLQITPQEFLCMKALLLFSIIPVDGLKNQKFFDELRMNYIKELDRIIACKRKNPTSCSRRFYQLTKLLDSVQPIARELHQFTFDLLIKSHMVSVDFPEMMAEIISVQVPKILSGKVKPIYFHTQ

[13] = target: Baculoviral IAP repeat-containing protein 2 (Homo sapiens, UniProt Q13490); assay: Binding affinity to c-IAP1-BIR3 (unknown origin) (124 to 240 residues) expressed in Escherichia coli BL21-Gold (DE3) by surface plasmon resonance assay
[14] = target: E3 ubiquitin-protein ligase XIAP (Homo sapiens, UniProt P98170); assay: Binding affinity to XIAP-BIR3 (unknown origin) (124 to 240 residues) expressed in Escherichia coli BL21-Gold (DE3) by surface plasmon resonance assay
[15] = target: T1, B-cell lymphoma 6 protein; assay: Inhibition of BCL6 BTB domain (5 to 129 residues) C8Q/C67R/C84N triple mutant (unknown origin) expressed in Escherichia coli BL21(DE3) cells using 5-TAMRA-RSEIISTAPSSWVVPG incubated for 1 hr by fluorescence polarization assay
[16] = Selectivity ratio of IC50 for human IOSE144 cells to IC50 for human OVCAR3 cells; assay type: functional
OVCAR-3 = assay: Growth inhibition of human OVCAR3 cells incubated for 48 hrs by MTT assay; assay type: functional, cell-based; details: OVCAR-3, 48 h
[17] = Selectivity ratio of IC50 for human IOSE144 cells to IC50 for human A2780 cells; assay type: functional
A2780 = assay: Growth inhibition of human A2780 cells incubated for 48 hrs by MTT assay; assay type: functional, cell-based; details: A2780, 48 h

Chain of Histone-lysine N-methyltransferase EZH2 (Q15910 whole entry): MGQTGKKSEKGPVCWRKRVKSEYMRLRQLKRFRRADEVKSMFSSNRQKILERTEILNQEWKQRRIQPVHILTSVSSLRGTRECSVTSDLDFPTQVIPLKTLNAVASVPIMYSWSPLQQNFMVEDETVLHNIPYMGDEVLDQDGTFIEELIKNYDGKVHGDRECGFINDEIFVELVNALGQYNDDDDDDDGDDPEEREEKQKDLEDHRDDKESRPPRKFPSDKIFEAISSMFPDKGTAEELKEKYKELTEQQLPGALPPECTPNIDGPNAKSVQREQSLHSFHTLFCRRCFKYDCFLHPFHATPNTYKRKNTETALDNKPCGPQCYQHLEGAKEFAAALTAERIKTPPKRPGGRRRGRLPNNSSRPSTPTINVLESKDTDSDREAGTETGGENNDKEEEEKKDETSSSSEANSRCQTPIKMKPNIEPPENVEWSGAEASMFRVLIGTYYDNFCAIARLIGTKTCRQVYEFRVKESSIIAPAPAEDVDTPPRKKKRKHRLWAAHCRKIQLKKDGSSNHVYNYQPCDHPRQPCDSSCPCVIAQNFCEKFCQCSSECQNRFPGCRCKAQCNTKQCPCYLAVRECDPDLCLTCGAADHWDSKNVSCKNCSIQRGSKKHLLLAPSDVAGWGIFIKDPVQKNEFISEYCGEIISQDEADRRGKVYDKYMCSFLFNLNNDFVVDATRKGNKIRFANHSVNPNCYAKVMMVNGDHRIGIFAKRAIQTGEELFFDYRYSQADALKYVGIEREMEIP
Chain of Leucine-rich repeat serine/threonine-protein kinase 2 (Q5S007 whole entry G2019S, the tested form may be a part): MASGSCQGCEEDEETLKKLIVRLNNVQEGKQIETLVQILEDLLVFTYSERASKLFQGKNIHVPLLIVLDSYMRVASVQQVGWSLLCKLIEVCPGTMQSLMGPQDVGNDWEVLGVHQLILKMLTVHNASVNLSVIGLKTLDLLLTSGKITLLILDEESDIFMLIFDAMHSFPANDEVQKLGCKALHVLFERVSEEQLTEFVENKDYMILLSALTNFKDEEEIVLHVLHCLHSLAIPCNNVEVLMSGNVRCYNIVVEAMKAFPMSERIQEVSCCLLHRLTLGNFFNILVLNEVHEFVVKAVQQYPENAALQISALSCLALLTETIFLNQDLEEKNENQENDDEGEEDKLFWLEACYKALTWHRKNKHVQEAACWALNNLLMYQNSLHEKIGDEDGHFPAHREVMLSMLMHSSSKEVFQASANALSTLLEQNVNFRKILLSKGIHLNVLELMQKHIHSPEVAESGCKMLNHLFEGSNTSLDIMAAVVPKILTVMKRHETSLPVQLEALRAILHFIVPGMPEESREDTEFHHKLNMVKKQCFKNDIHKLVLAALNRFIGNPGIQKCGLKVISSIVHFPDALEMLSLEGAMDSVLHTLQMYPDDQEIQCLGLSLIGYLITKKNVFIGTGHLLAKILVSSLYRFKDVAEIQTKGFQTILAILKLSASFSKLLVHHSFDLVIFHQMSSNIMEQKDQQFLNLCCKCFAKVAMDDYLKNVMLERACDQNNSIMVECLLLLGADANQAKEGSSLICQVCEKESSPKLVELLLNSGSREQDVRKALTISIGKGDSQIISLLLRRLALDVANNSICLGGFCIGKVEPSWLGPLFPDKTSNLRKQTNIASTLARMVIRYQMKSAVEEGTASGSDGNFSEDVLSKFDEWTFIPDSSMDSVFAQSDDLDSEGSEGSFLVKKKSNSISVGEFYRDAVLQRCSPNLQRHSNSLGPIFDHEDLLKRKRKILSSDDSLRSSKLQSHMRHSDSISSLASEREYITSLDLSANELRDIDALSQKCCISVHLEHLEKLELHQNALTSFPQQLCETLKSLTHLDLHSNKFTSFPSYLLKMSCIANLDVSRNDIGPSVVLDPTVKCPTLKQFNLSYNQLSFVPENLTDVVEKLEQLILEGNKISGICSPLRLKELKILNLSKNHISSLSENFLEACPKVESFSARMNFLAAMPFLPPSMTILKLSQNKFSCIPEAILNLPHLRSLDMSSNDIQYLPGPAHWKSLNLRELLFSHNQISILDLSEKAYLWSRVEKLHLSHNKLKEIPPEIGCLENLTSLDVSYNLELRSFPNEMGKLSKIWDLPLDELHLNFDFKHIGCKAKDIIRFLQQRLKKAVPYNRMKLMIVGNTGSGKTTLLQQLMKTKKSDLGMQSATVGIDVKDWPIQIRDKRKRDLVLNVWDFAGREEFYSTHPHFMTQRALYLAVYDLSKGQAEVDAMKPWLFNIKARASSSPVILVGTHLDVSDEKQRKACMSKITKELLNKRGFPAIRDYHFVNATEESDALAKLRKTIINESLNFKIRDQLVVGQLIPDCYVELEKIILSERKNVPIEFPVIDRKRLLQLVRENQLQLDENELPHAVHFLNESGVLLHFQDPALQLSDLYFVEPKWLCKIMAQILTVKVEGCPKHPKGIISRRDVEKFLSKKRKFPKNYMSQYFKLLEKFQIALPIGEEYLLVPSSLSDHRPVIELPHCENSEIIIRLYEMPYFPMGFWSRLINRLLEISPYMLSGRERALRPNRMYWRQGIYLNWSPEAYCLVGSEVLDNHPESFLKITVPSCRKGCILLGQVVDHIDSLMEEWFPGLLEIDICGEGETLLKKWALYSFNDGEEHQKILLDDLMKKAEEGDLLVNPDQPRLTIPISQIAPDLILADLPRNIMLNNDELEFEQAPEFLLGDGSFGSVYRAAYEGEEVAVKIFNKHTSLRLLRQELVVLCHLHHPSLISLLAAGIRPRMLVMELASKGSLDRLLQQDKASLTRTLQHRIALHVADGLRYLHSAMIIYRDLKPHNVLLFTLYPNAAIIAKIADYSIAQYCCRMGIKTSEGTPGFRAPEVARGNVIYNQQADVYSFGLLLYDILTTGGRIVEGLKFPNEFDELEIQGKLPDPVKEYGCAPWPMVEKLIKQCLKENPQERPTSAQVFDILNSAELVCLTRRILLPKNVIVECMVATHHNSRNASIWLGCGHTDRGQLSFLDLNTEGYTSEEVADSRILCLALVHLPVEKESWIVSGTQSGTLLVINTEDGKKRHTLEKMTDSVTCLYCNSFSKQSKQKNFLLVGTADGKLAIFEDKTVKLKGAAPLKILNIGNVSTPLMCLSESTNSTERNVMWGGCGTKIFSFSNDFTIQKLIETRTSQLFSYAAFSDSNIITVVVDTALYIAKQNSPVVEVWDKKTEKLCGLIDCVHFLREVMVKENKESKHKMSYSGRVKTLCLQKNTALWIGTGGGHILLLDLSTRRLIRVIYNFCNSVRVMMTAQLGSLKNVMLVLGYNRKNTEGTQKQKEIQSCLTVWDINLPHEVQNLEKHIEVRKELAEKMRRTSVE
Chain of Tyrosine-protein kinase JAK2 (O60674 whole entry): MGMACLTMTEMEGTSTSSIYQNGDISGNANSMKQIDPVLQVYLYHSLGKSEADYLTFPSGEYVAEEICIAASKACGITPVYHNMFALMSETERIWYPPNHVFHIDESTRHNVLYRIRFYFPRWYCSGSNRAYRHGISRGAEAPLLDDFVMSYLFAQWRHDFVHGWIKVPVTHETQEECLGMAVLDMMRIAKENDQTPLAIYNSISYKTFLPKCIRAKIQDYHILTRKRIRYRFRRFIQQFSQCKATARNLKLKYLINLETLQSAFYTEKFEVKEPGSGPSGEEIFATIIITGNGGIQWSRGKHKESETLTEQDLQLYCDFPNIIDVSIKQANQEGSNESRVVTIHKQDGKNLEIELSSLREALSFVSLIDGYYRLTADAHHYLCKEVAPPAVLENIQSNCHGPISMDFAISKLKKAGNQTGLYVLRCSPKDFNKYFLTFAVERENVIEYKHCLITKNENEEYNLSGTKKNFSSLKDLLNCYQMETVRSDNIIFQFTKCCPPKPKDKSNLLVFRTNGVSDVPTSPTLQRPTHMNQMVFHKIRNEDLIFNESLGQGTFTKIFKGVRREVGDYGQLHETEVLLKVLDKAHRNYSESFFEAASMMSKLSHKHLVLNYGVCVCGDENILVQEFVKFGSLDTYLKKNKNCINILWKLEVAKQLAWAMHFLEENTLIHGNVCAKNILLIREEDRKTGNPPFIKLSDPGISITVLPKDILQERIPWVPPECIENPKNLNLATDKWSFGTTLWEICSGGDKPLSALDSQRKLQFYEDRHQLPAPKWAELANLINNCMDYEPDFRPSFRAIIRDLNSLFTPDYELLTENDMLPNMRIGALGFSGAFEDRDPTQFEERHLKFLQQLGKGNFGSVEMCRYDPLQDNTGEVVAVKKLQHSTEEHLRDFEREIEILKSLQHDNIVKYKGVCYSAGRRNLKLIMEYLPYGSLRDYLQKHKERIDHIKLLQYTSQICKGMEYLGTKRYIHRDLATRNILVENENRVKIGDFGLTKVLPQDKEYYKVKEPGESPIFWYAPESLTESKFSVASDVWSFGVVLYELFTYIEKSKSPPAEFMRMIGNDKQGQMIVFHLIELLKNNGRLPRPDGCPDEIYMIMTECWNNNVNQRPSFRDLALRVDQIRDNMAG
Chain of E3 ubiquitin-protein ligase XIAP (P98170 whole entry, the tested form may be a part): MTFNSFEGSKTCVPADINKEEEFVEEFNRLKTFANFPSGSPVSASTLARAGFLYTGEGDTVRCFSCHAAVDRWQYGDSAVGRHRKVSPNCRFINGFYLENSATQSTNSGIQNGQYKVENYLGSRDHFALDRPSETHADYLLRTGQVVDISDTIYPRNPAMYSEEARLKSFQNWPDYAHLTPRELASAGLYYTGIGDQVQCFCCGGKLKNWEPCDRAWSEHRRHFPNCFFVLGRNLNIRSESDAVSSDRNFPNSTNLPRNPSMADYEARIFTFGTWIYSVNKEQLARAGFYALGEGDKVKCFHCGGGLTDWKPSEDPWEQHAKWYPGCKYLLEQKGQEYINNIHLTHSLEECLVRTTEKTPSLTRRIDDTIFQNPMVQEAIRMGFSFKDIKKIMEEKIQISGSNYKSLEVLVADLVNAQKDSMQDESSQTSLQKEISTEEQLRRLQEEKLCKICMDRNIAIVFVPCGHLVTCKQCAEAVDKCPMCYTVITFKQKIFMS

Compound `CC(C)=CCC/C(C)=C/Cc1c(O)c(CC=C(C)C)c2c(c1O)C(=O)C1=CC3CC4C(C)(C)OC(C/C=C(\C)C(=O)O)(C3=O)C14O2` (stereo unspecified) has a Kd [1] of 182 nM.

Work on `O=C(Nc1ccc(Nc2nccc(Nc3cc(C4CCCC4)[nH]n3)n2)cc1)Nc1cccc(C(F)(F)F)c1` yielded an Emax [2] of 14% and an EC50 (cells) of 223 nM.

Work on `CNC(=O)COc1cc2cc(Nc3nc(N4CCC(C(=O)N(C)C)CC4)ncc3Cl)cc(OC)c2n(C)c1=O` yielded an Activity [3] of 50% and an Activity [4] of over 90%.

Work on `CCOCCNC(=O)/C(C)=C/CC12OC(C)(C)C3CC(C=C4C(=O)c5c(O)c(C/C=C(\C)CCC=C(C)C)c(O)c(CC=C(C)C)c5OC431)C2=O` (stereo unspecified) yielded a Kd [1] of 116 nM.

Work on `CNC(=O)COc1cc2cc(Nc3nc(N4C[C@H](C)C[C@H](C)C4)ncc3Cl)cc(OC)c2n(C)c1=O` yielded an Activity [3] of 50%, an IC50 [5] of 3 nM and an Activity [4] of over 90%.

Work on `C[C@@H]1CCN(C(=O)N2CCCC2)C[C@@H]1N(C)c1ncnc2[nH]ccc12` yielded an IC50 [6] of 7.5 nM, an IC50 [7] of 2.8 nM and an Activity [8] of 50%. It also gave an IC50 [9] of 7.1 nM, an IC50 [10] of 128 nM and an Activity [11] of 50%.

Work on `CCNc1nc(Nc2cc(F)c(C(=O)N3CCOCC3)cc2OC)ncc1C(F)(F)F` yielded a Ki [12] of 1 nM.

Compound `COc1cc(Nc2ncc3c(n2)-c2ccc(Cl)cc2C(c2c(F)cccc2OC)=NC3)ccc1C(=O)O` [ALISERTIB] has an Emax [2] of 37%.

In the case of `CC(=O)N1CCN(CCOc2ccc(C3CCN(C4=Nn5c(nnc5C(F)(F)F)CC4)CC3)cc2)CC1` [AZD3514], the Ki (Androgen receptor) is reported as 5000 nM.

In the case of `CN[C@@H](C)C(=O)N[C@H](C(=O)N1CCC[C@H]1C(=O)N[C@H](C(=O)OC)C(c1ccccc1)c1ccccc1)C1CCCCC1` (H-[NMeA][Chg]P[Dip]-OMe), the Kd [13] is reported as 6 nM and the Kd [14] is reported as 16 nM.

Compound `Cc1cc(C)n(-c2ncc(Cl)c(Nc3ccc(Cl)cc3)n2)n1` has an IC50 [15] of 18000 nM.

For `C[C@H]1[C@@H](O)O[C@@H]2O[C@@]3(C)CC[C@H]4[C@H](C)CC[C@@H]1[C@@]24OO3` [ARTENIMOL], the “Ratio IC50” value [16] was 5, the IC50 (OVCAR-3) was 1000 nM and the “Ratio IC50” value [17] was 5. It also gave an IC50 (A2780) of 1000 nM.

Work on `CNc1nc(Nc2cn(C(C)(C)C#N)nc2C)ncc1C(F)(F)F` [DNL-201] yielded a Ki [12] of 0.6 nM.
